PMC5712521, “Dendrogenin A drives LXR to trigger lethal autophagy in cancers” (Nature Communications, 2017)
Like-named read-outs stand apart in the source and are kept apart here.

Experiments:
[1] = tested on: AML patient samples; assay: Annexin-V/7AAD viability assay on AML patient samples (bulk and CD34+CD38−CD123+ progenitor/LSC); format: cell-based, human; conditions: for IC50: Homo sapiens, 48 h, panel of 61 AML patient samples
Protocol: The cytotoxic response to DDA of AML cells was determined by flow cytometry. Cells were exposed to DDA for 24 or 48 h then washed with cold phosphate-buffered saline (PBS) and resuspended in 200 µl of Annexin-V binding buffer. For the analysis of AML patient samples, cells were incubated with antibodies against the surface markers CD45-V450 (clone H130), CD34-PeCy7 (clone 8G12), CD38-APC (clone HB7) and CD123-PE (clone 9F5) (BD Pharmagen) before being resuspended in Annexin-V binding buffer. Annexin-V-fluorescein isothiocyanate (BD Pharmagen, clone 2331) and 7-aminoactinomycin D (7AAD) were then added, and the samples were incubated in the dark at room temperature for 15 min. The percentage of viable cells, Annexin-V-7AAD-negative cells, was scored using a flow cytometer.
AML patient and normal bone marrow samples were obtained from patients in the Hematology Department of Toulouse (France), after obtaining consent in accordance with the Declaration of Helsinki[67], and according to institutional guidelines. Samples were stored at the INSERM-1037 HIMIP collection (no. DC-2008-307-CPTP1 HIMIP). For some experiments, fresh leukemic blasts recovered at diagnosis were immediately treated with DDA. In other cases, frozen cells were thawed in IMDM medium with 20% FBS. Patient characteristics are shown in supplementary data 1. Normal bone marrow cells were subjected to Ficoll-Paque density gradient separation to isolate mononuclear cells, followed by CD34+ cell separation using high-gradient magnetic-activated cell sorting, according to the manufacturer’s manual. The in vivo assays were performed with cryopreserved cells.

[2] = tested on: KG1 tumors; assay: Subcutaneous KG1 tumor xenograft; format: in vivo, mice
Protocol: Exponentially growing cells were harvested, washed twice in PBS then resuspended in PBS. SKMEL-28, shSKMEL-28 clones (5 × 10^6 cells) and B16F10 (3 × 10^5) cells were injected subcutaneously (s.c.) into the flank of nude mice. HL60, KG1 and shKG1-clones (5 × 10^6) were inoculated s.c. into the flanks of NOD/SCID mice. When tumors were palpable, animals (n = 10–20 mice per group, as indicated) were randomized to receive either DDA (20 mg/kg) intraperitoneally (i.p.) or 40 mg/kg by oral gavage (p.o), once a day, or vehicle solvent for the indicated time. Animals were examined daily and body weights were measured twice a week. In all experiments, tumor volume was determined by direct measurement with a caliper and was calculated using the formula (width^2 × length)/2. At the end of experiments, mice were sacrificed and tumors were excised and divided for intra-tumoral DDA quantification, immunoblotting, or immunohistochemistry analyses. […]
(n=16- 20 mice/group) engrafted with KG1 cells or HL60 cells were treated with DDA (20 mg/kg/day, i.p.) or solvent vehicle (control). Tumor growth was monitored over time and was analyzed for significance using repeated measures ANOVA (***P<0.001). The mean tumor volumes ± SEM are shown. e Average tumor weight at the end of the experiments in d. *P<0.5, **P<0.01, ANOVA. f Mean tumor volumes measured at the end of the experiments for HL60 and KG1 graf ted into NOD/SCID or NMRI-Fo x1 -nude mice treated with DDA (40 mg/kg/day, p.o. or 20 mg/kg/day, i.p.) or solvent vehicle (control) (n=10- 20 mice per group). Values represent the means ± S.E.M. (**P<0.01, ***P<0.001, ANOVA). g Histochemical analysis of the expression of LC3 and P62 in HL60 tumor sections isolated from NOD/SCID mice treated or not with DDA (20 mg/kg/day, i.p.). h Quantification of LC3 punctate cells in shCTRL and shLXRβ KG1 tumors. i Quantification of DDA levels in tumors 4 h after the final administration of DDA. j Box plot of TCGA RNA-seq data from patients with melanoma showing that LXRβ is the predominant LXR isoform expressed. […]

[3] = DDA concentrations in spleen and bone marrow; format: in vivo, NSG mice; conditions: NSG, mouse, ip, daily i.p. 20 mg/kg for 21 days
Protocol: Bars represent S.E.M. ( ***P<0.001, **P<0.01, t test).
(also on this page, place not known: plasma times treatment mice administration plasma times treatment mice administration mg/kg mg/kg Summary pharmacokinetic parameters mice. were measured daily administration mg/kg days. (***P<0.001, mg/kg DDA in plasma (p.o.) (p.o.) DDA in plasma (µM) i.p. i.v. (mg/kg) 20 T1/2 0.1 T1/2 elimination 1.0 T1/2 - Bioavailability (%EP) (µM) 370 Tmax 0.002 marrow 0.01 0.1 1 10 Control DDA DDA level (µM) ***)

CC(C)CCC[C@@H](C)[C@H]1CC[C@H]2[C@@H]3C[C@@H](NCCc4cnc[nH]4)[C@@]4(O)C[C@@H](O)CC[C@]4(C)[C@H]3CC[C@]12C [DDA, Dendrogenin A]
efficiency relative to cytarabine ([1]; AML bulk and progenitor/LSC (CD34+CD38−CD123+) subpopulation): 100 fold | IC50 ([1]; read-out: median IC50, cell viability): 3.3 µM | IC50 ([1]; read-out: range of IC50, cell viability): 1.2 to 11.3 µM | Tumor volume at the end of the experiment ([2]; NOD/SCID mice, DDA i.p. 20mg/kg/d (control 1249±137)): 618±55 mm3 | Tumor volume at the end of the experiment ([2]; NOD/SCID mice, DDA p.o. 40mg/kg/d (control 1249±137)): 400±68 mm3 | Tumor volume at the end of the experiment ([2]; mice, DDA i.p. 20mg/kg/d (control 1134±389)): 443±62 mm3 | concentration at 21 days ([3]; bone marrow, read-out: DDA concentration in the bone marrow): 3480 ± 530 nM | concentration at 21 days ([3]; spleen, read-out: DDA concentration in the spleen): 1320 ± 30 nM
